Experimental data as given in patent publication US20160058829A1, “ANTI-FIBROTIC PEPTIDES AND THEIR USE IN METHODS FOR TREATING DISEASES AND DISORDERS CHARACTERIZED BY FIBROSIS” (Thrasos Innovation, Inc., priority 2011, published 2016).
Positions of bridges follow the written chain, without caps; N, C: chain ends.

Columns and labels:
[1] = test system: human proximal tubule epithelial cells (HK2); test: D-glucose-induced EMT assay, E-cadherin immunofluorescence with colorimetric image analysis; format: cell-based; conditions: D-glucose 50 mM
[2] = In vitro stability in rat blood, plasma and PBS-mannitol buffer (LC-MS-MS); format: in vitro ADME; conditions: 0.1 mg/mL, 37° C.
Method: FIG. 46 In vitro stability of THR-123. THR-123 was spiked into freshly harvested rat blood (male Sprague-Dawley, 0.35 kg BW) and plasma, and PBS-mannitol buffer solution at a final concentration of 0.1 mg/mL. Blood, plasma and buffer master tubes were incubated at 37° C. for up to 6 h and duplicate samples of 500 μl (blood) and 250 μl (plasma and […]) were collected for analysis at 0, 7.5, 15, 30, 60, 120, 240 and 360 min. Samples were analyzed for THR-123 using an LC-MS-MS method having a limit of detection of 1 μg/ml.
The stability of THR-123 in whole blood and plasma was tested in vitro. In PBS-mannitol buffer, THR-123 was stable for over 400 minutes (FIG. 46).

[3] = test system: human proximal tubule epithelial cells (HK2); test: Cisplatin-induced apoptosis in HK-2 cells (Annexin V); format: cell-based; conditions: THR-123 250 μM, cisplatin 10 μM
Method: FIG. 50A-FIG. 50D THR-123 inhibits Cisplatin-induced apoptosis in human proximal tubule epithelial cells (HK2). Immortalized human proximal tubular epithelial-derived HK-2 (Human Kidney-2) cells are passaged on 24-well plates (˜25,000 to 30,000 cells/well). The cells are exposed either K-SFM media alone or K-SFM medium containing THR-123. BMP7 serves as a positive control of experiment. Two hours after incubation, cells are exposed to cisplatin for 60 hours (FIG. 50A-FIG. 50C). FIG. 50D. Cells are exposed to cisplatin for 6 hours and subsequently THR-123 was added into the media. Apoptosis is determined by staining of AnnexinV-FITC Apoptosis detection kit (TACS Annexin V-FITC) (R&D Systems), followed by fluorescence microscopy. Final concentration: THR-123 250 μM, BMP-7 1 μg/ml, cisplatin 10 μm.
HK-2 cells are passaged on 24-well plates (25,000-30,000 cell/well). Once cells attached on the well, cells are exposed either K-SFM media alone or K-SFM medium containing THR-123. BMP7 serves as a positive control of experiment. Two hours after incubation, cells are exposed to cisplatin for 60 hours. Apoptosis is determined by staining of AnnexinV-FITC, followed by fluorescence microscopy. Final concentration: THR-123 250 μM, BMP7 1 μg/ml, cisplatin 10 μM.

Substance: (H)-CYFDDSSNVLCKKYRS-(OH) (H-CYFDDSSNVLCKKYRS-OH; disulfide 1-11; SMILES CC(C)C[C@@H]1NC(=O)[C@H](C(C)C)NC(=O)[C@H](CC(N)=O)NC(=O)[C@H](CO)NC(=O)[C@H](CO)NC(=O)[C@H](CC(=O)O)NC(=O)[C@H](CC(=O)O)NC(=O)[C@H](Cc2ccccc2)NC(=O)[C@H](Cc2ccc(O)cc2)NC(=O)[C@@H](N)CSSC[C@@H](C(=O)N[C@@H](CCCCN)C(=O)N[C@@H](CCCCN)C(=O)N[C@@H](Cc2ccc(O)cc2)C(=O)N[C@@H](CCCNC(=N)N)C(=O)N[C@@H](CO)C(=O)O)NC1=O) [SEQ ID NO: 1]
- prevention of D-glucose induced loss of epithelial phenotype (E-cadherin expression) [1]: effectively prevents
- half-life in rat plasma [2]: 5.97 h
- half-life in rat whole blood [2]: 1.17 h
- cisplatin induced apoptosis [3]: inhibited
